Reference: patent US5075337A, “Alpha-deuterated 2-alkylaminoacetamide derivatives having reduced toxicity for treatment of CNS disorders” (G. D. Searle & Co., priority 1989, dated 1991)

Assays:
[1] = tested on: convulsions induced by 3-mercaptopropionic acid (3-MPA); test: Prevention of chemically induced convulsions (3-MPA); type: in vivo, mouse (male Swiss albino); details: 100 mg/kg oral; 3-MPA 120 mg/kg subcutaneously; two groups of 5 mice
Protocol: (§1) The anticonvulsive effect of a compound of the invention was examined for clonic, tonic convulsions and death induced by different convulsant agents, namely, 3-mercaptopropionic acid (3-MPA 120 mg/kg subcutaneously) and bicuculline (BIC, 0.6 mg/kg intravenously), (W. van Dorsser, D. Barris, A. Cordi and J. Roba; Arch. Int. Pharmacodyn., 266: 239-249 (1983)). The compounds of the invention were administered orally at dosage of either 100 mg/kg (3-MPA) or 30 mg/kg (BIc) in a volume of 10 ml/kg, each to 5 mice, 30 minutes or 2 hours before convulsions were induced. Test mice used were male Swiss albino mice weighing 22-33 g, CDl, charles River, France, housed in group of 10 on a 12 hours light-dark cycle for at least 1 week before use, and fasted overnight. The number of mice protected against tonic convulsions and the number of dead mice were noted. The results are given as a score which represents the total number of mice protected by a dose of 100 mg/kg for two groups of 5 animals (3-MPA) or the percentage of mice protected by a dose of 30 mg/kg in 4 groups of 5 animals (BIC).

[2] = molecular target: T1, monoamine oxidase enzyme (MAO-B) (Rattus norvegicus, UniProt P19643); test: MAO-B enzyme inhibition assay (rat brain mitochondria, preincubation with inhibitor); type: biochemical, rat (Sprague Dawley)
T1 construct: 14C-beta-phenylethylamine substrate
T1 sequence (P19643 1-520): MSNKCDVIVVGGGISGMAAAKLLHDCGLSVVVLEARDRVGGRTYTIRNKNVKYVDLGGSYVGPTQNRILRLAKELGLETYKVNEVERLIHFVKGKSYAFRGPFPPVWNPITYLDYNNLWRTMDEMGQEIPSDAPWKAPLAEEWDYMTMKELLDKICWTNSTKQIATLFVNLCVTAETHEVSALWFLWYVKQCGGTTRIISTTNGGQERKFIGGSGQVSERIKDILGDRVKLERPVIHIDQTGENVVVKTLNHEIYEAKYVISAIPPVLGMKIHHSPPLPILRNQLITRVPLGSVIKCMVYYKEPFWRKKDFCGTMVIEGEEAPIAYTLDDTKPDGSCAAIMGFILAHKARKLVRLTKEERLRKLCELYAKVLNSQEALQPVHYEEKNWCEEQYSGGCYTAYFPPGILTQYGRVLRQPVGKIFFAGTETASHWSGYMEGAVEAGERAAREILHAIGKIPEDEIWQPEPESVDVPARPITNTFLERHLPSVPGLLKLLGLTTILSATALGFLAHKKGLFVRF
Protocol: Rat brain mitochondria were purified by a modification of the method of Dodd (Dodd Sprague Dawley rats of about 200 gr were decapitated and the brain was rapidly removed from the skull. Brains were homogenized with a glass-Teflon homogenizer in ice cold 0.32M sucrose (1/10, w/v). The homogenate was centrifuged at 2,400 g for 10 min at 4° C. The supernatant was centrifuged at 3,000 g for 10 min at 4° C. This last supernatant (8 ml) was poured into at tube containing 4 ml of 1.2M sucrose. The mitochondrial fraction is obtained after a centrifugation at 115,000 g for 30 min at 4° C. The mitochondrial pellet was suspended in 4 ml of 50 mM Na phosphate buffer and stored as aliquots at -30° C. […] Aliquots of the mitochondrial fraction were preincubated with ^2 H-milacemide or milacemide (200 μM in 50 mM Na phosphate buffer pH8) for different time periods, the samples were diluted with the incubation buffer, centrifuged and the pelleis were then used for the MAO assay. The enzymatic assay was performed in Eppendorf micro tubes (1.5 ml). The 100 μl total incubation volume contained 40 μl of 7 mM ^14 C-β-phenylethylamine, 20 μl of 50 mM Na phosphate buffer pH 8 and 40 μl of the pre-incubated mitochondrial fraction (0.2 mg protein/ml). The closed micro tubes were immediately shaken using a vortex and incubated during 4 min at 37° C. The reaclion was stopped by adding 20 μl of 1.5 N Hcl into the tube placed in an ice bath. The deaminated products were extracted with 600 μl of a toluene-ethyl acetate mixture (water saturated) and strongly mixed during 30 sec. The two layers were separated by centrifugation (10.000 g) for 10 min. Then, 400μL of the organic layer were added to 4 ml of lumagel in a scintillation counting vial. Blank values are obtained by incubating the mitochondrial fraction with Hcl 1.5M.

[3] = tested on: convulsions induced by bicuculline (BIC); test: Prevention of chemically induced convulsions (bicuculline); type: in vivo, mouse (male Swiss albino); details: 30 mg/kg oral; bicuculline 0.6 mg/kg intravenously; 4 groups of 5 mice
Protocol: as §1

[4] = Comparative pharmacokinetic study, 1:1 mixture of milacemide and ^2 H-milacemide; type: in vivo, cynomolgus monkey (Macaca fascicularis); details: for ^2 H-milacemide/milacemide ratio, plasma AUC / ^2 H-milacemide/milacemide ratio, urine 24 hours excretion: 1:1 mixture
Protocol: A comparative pharmacokinetic study was conducted in the cynomolgus monkey (Macaca fascicularis) with a 1:1 mixture of milacemide and ^2 H-milacemide administered to 4 males and 4 females used in this study. One animal of each sex received the mixture either by the i.v. route at the dose of 30 mg/kg, or by the intragastric route at the dose of 30 mg/kg or 100 mg/kg, or 300 mg/kg. Plasma samples were drawn from the males and 0-24 hours urine samples were collected by the females. Preliminary determinations of milacemide in the urine samples were made by HPLC. […] The aqueous solution was made alkaline by the addition of 0.3 mL of 0 5M borate buffer at pH 9.3. Derivatization occurs by addition of 0.3 mL of a solution of fluorescamine in acetone (75 g/L), then 10 to 20 pL aliquots were injected on a 5 Bondapak C18 column eluted by a mixture of tetrahydrofuran, water and 0.5M borate buffer (2/6/2) adjusted to pH 8 by the addition of hydrochloric acid. […] Analysis of the ratio of unchanged deutero milacemide versus milacemide, was performed by GC-MS Milacemide and ^2 H-milacemide extracted from plasma aliquots were transformed into their respective N-trifluoroacetylated nitrile by reaction with trifluoroacetic anhydride. After separation from the impurities, on a 3% OV 17 column, the mass spectra were obtained in the chemical ionization mode by ammonia on a Riber 10-10 B mass spectrometer. […] Quantification was performed using selected ion monitoring (SIM) on the base peaks mentioned.

[5] = in words; literature; cited from earlier work
MAO-B enzyme = details: in words; literature; cited from earlier work
[6] = 200 μM, preincubation, pH 8, rat brain mitochondria, 50% inhibition
[7] = compared with milacemide, in words

**Q.** What does the source list for `[2H]C([2H])(CCCC)NCC(N)=O` [^2 H-milacemide, 2-(1,1-dideuteropentylamino)acetamide]?
**A.** 3-MPA (% Protected) [1]: 10%; time to reach the same level of inhibition (50%) of MAO-B [2, 6]: at least 3 hours; fold more time needed to reach the same level (50%) of MAO-B inhibition, ^2 H-milacemide vs milacemide ([2]; ^2 H-milacemide relative to milacemide): 6 fold; BIC (% Protected) [3]: 45%; ^2 H-milacemide/milacemide ratio, plasma AUC ([4]; 30 mg/kg i.g.): 14.6; ^2 H-milacemide/milacemide ratio, urine 24 hours excretion ([4]; 30 mg/kg i.g.): 7.4; ^2 H-milacemide/milacemide ratio, plasma AUC ([4]; 30 mg/kg i.v.): 2.6; ^2 H-milacemide/milacemide ratio, urine 24 hours excretion ([4]; 30 mg/kg i.v.): 3.1; ^2 H-milacemide/milacemide ratio, plasma AUC ([4]; 100 mg/kg i.g.): 9.2; ^2 H-milacemide/milacemide ratio, urine 24 hours excretion ([4]; 100 mg/kg i.g.): 5.2; ^2 H-milacemide/milacemide ratio, plasma AUC ([4]; 300 mg/kg i.g.): 7.1; ^2 H-milacemide/milacemide ratio, urine 24 hours excretion ([4]; 300 mg/kg i.g.): 3.7; first pass effect [4, 7]: reduced first pass effect; half-life [4, 7]: prolonged; metabolic clearance [4, 7]: decreased metabolic clearance

**Q.** Which results are given for `CCCCCNCC(N)=O` [milacemide, 2-n-pentylaminoacetamide, reference compound]?
**A.** 3-MPA (% Protected) [1]: 20%; time to inhibit MAO-B activity by 50% [2, 6]: 30 min; BIC (% Protected) [3]: 65%; brain bioavailability [5]: limited brain bioavailability; metabolism in the peripheral system by the MAO-B enzyme (MAO-B enzyme): metabolized in the peripheral system by the MAO-B enzyme

**Q.** For `NNCCc1ccccc1` [phenelzine], which brain bioavailability [5] is on record?
**A.** limiting its brain bioavailability

**Q.** What about the “metabolism in the peripheral system by the MAO-B enzyme” value (MAO-B enzyme) of the same compound?
**A.** metabolized in the peripheral system by the MAO-B enzyme
